Results published in US7794934B2, “Predicting negative symptom change during drug treatment” (Centre for Addiction and Mental Health, priority 2006, dated 2010).
Like-named read-outs stand apart in the source and are kept apart here.

Columns and labels:
[1] = tested on: patients with schizophrenia; conditions: cited from earlier work
NMDA receptors = conditions: Wang and Liang 1998; cited from earlier work
schizophrenic subjects = assay: Negative symptom improvement (SADSneg subscale) over six months of clozapine treatment, by GRIN2B T5988C genotype; type: in vivo, human; conditions: after six months of clozapine treatment, baseline as covariate
Experimental: Our sample consisted of 90 schizophrenic subjects treated with clozapine. The majority of the patients were Caucasian. The second most represented ethnicity was African American. The ratio of males to females was approximately 2.5:1. The overall response to clozapine treatment over six months was assessed using the Brief Psychiatric Rating Scale (BPRS) and the Schedule for Affective Disorders and Schizophrenia (SADS). The sample is composed of a group of patients from the Cleveland area (obtained from Dr. H. Y Meltzer, Case Western Reserve University), as part of a multisite coordinated clinical trial of clozapine response. Data on the specific assessment of negative symptom improvement in response to clozapine treatment were collected over a six month period (baseline minus 6 month score). Negative symptom improvement over a period of six months was assessed using the Brief Psychiatric Rating Scale subscale for negative symptoms (BPRSneg), and the Schedule for Affective Disorders and Schizophrenia subscale for negative symptoms (SADSneg).
Analysis of Covariance (ANCOVA) was performed in order to test the effect of genotype on negative symptom improvement as measured by the SADSneg subscale. The baseline score for the SADSneg, assessed before the clozapine treatment was started, was used as a covariate, in part to control for regression to the mean effects.

[2] = tested on: neurotoxicity induced by NMDA receptor antagonists; conditions: Farber 1993, 1996; Olney 1994; cited from earlier work
[3] = tested on: PCP-induced social withdrawal; conditions: rats (Corbett et al. 1995); cited from earlier work
NMDA receptor = conditions: at therapeutic levels (Lidsky et al. 1993); cited from earlier work
[4] = tested on: NMDA-receptor-mediated neurotransmission; conditions: Arvanov et al. 1997; cited from earlier work
[5] = target: glycine binding site associated with the NMDAR complex (Homo sapiens, UniProt Q05586); conditions: cited from earlier work
[6] = added to conventional antipsychotics

N[C@@H]1CONC1=O [D-cycloserine]
effect on negative symptoms ([1]; added to clozapine): worsening of negative symptoms
effect on negative symptoms [1, 6]: significantly improved
performance on a cognitive battery [1, 6]: did not improve

COc1cccc([C@H](O)C2CCN(CCc3ccc(F)cc3)CC2)c1OC [M100907]
prevention of PCP-induced blockade of NMDA receptors (NMDA receptors): prevented

CN1CCN(C2=Nc3cc(Cl)ccc3Nc3ccccc32)CC1 [clozapine]
SADSneg mean (mean converted change score, baseline minus 6 month score) (schizophrenic subjects; GRIN2B 5988 C C genotype): 1.3
SADSneg mean (mean converted change score, baseline minus 6 month score) (schizophrenic subjects; GRIN2B 5988 C T genotype): 1.26
SADSneg mean (mean converted change score, baseline minus 6 month score) (schizophrenic subjects; GRIN2B 5988 T T genotype): 1.87

CN1CCN(C2=Nc3cc(F)ccc3Cc3ccccc32)CC1 [fluperlapine]
prevention of neurotoxicity induced by NMDA receptor antagonists [2]: strongly prevented

O=C(CCCN1CCC(O)(c2ccc(Cl)cc2)CC1)c1ccc(F)cc1 [haloperidol]
reversal of PCP-induced social withdrawal [3]: not
prevention of neurotoxicity induced by NMDA receptor antagonists [2]: intermediate effectiveness
displacement of the ligand [3H]MK801 from the NMDA receptor (NMDA receptor): not
enhancement of NMDA-receptor-mediated neurotransmission [4]: not
mode of action at the glycine binding site associated with the NMDAR complex ([5]; Lidsky et al. 1997): partial agonist
effect on NMDA receptor activity ([5]; in the absence of glycine (Lidsky et al. 1997)): augmented

Cc1nc2n(c(=O)c1CCN1CCC(c3noc4cc(F)ccc34)CC1)CCCC2 [risperidone]
reversal of PCP-induced social withdrawal [3]: not

CSc1ccc2c(c1)N(CCC1CCCCN1C)c1ccccc1S2 (stereo not shown) [thioridazine]
prevention of neurotoxicity induced by NMDA receptor antagonists [2]: intermediate effectiveness
